The source of these data is patent publication US8084457B2, “Pharmaceutically active 4,6-disubstituted aminopyrimidine derivatives as modulators of protein kinases” (Lead Discovery Center GmbH, priority 2003, dated 2011).

SMILES strings stand for the structures. Some results are limits rather than exact numbers.

The target of assay [1] is c-Kit (Homo sapiens, UniProt P10721). The assay is described as follows: General kinase assay, selectivity panel: c-Kit. Conditions: 10 μM of compound, in comparison to DMSO (0% inhibition). In kind it is biochemical. Summed up: (§1)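 [γ-33P]ATP incorporation, 1 h RT, EDTA stop; MAPH filter capture, 0.75% H3PO4 washes, scintillation count. Compound tested at 10 μM; % inhibition vs DMSO (0%).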

For assay [2], the target named is EGFR (Homo sapiens, UniProt P00533). The assay is described as follows: General kinase assay, selectivity panel: EGFR. The format is biochemical. Conditions: 10 μM of compound, in comparison to DMSO (0% inhibition). In outline:
as §1

In assay [3] the target is CDK1 (Homo sapiens, UniProt P06493). The assay is described as follows: General kinase assay, selectivity panel: CDK1. The format is biochemical. Conditions: 10 μM of compound, in comparison to DMSO (0% inhibition). In outline:
as §1

Assay [4] addresses GSK-3β (Homo sapiens, UniProt P49841). The assay is described as follows: General kinase assay, selectivity panel: GSK-3β. The format is biochemical. Conditions: 10 μM of compound, in comparison to DMSO (0% inhibition). In outline:
as §1

The target of assay [5] is RSK1 (Homo sapiens, UniProt Q15418). The assay is described as follows: General kinase assay, selectivity panel: RSK1. The note with it: 10 μM of compound, in comparison to DMSO (0% inhibition). In kind it is biochemical. On the procedure: The inhibitory effect of compounds according to the present invention on the activity of protein kinases, depicted in Table 1, can be measured according to the following protocol:
Pipettinq Sequence: • 1) Add 10 μl 4 fold concentrated Substrate+4 fold concentrated ATP in 3 fold concentrated Reaction Buffer to each well of Assay Plate • 2) Add 10 μl 4 fold concentrated inhibitor in 4% DMSO in H2O to each well except to C− and C+ wells • 3) Add 10 μl 4% DMSO in H2O to C− and C+ wells • 4) Add 10 μl 500 mM EDTA in H2O to − wells • 5) Add 10 μl 50 μCi/ml Adenosine 5′-[γ-^33P]triphosphate in H2O to each well • 6) Add 10 μl 4 fold concentrated kinase in Reaction Buffer to each well • 7) Incubate 1 hr at room temperature • 8) Add 10 μl 50 mM EDTA in H2O to each well except to C− wells • 9) Prepare MAPH plates by adding 200 μl 0.75% H3PO4 to each well • 10) Exhaust 0.75% H3PO4 using Millipore vacuum station • 11) Add 60 μl 0.75% H3PO4 to each well of MAPH Filter Plate • 12) Transfer 30 μl sample per well from Assay Plate to corresponding well of MAPH Filter Plate • 13) Incubate 30 min at room temperature • 14) Wash each well of MAPH Filter Plates 3× with 200 μl 0.75% H3PO4 using Millipore vacuum station. • 15) Add 20 μl Scintillation Liquid to each well of MAPH Filter Plate • 16) Seal MAPH Filter Plate • 17) Store MAPH Filter Plate 30 min in darkness • 18) Quantify radioactivity
(§2) The activity of these protein kinases is depicted as % inhibition in the presence of 10 μM of compound in comparison to DMSO (0% inhibition).

For assay [6], the system named is PM1 cells. The assay is described as follows: Growth assay using Alamar Blue. The format is cell-based. On the procedure: Growth Assay Using Alamar Blue™:
PM1 cells were seeded in 12-well plates at a density of 1.5×10^5 per well with RPMI 1640 containing 10% FCS (fetal calf serum), 1% L-Glutamine and 1% Na-Pyruvate (Sigma). Cells were incubated with compound for 2-3 days (37° C., 6% CO2) followed by subsequent splitting and renewing of compound-containing medium. At each of these time points an aliquot of cells served as data point for relative growth (given in % of the DMSO control [=100%]). The cell number was determined by addition of 10 μL Alamar Blue™ (Biozol) to 100 μL cell aliquots following the manufacturer's instructions.

Assay [7] addresses p56 Lck (Homo sapiens, UniProt P06239). The assay is described as follows: General kinase assay, selectivity panel: p56 Lck. In kind it is biochemical. Conditions: 10 μM of compound, in comparison to DMSO (0% inhibition). Summed up:
as §1

The target in assay [8] is T1, CDK2/CyclinA (Homo sapiens, UniProt P24941).
T1 construct: purchased Proqinase
The assay is described as follows: Kinase assay determining CDK2/CyclinA activity. The format is biochemical. On the procedure:
(§3) Kinase Assays Determining CDK2/CyclinA and CDK5/p35 Activity:
(§4) Kinase assays were performed as described by the manufacturers recommendations (Proqinase for CDK2/CyclinA and Upsate for CDK5/p35).

The subject of assay [9] is PDGFR. The assay is described as follows: General kinase assay, selectivity panel: PDGFR. In kind it is biochemical. Conditions: 10 μM of compound, in comparison to DMSO (0% inhibition). In outline:
as §1

Assay [10] deals with T2, CDK5/p35 (Homo sapiens, UniProt Q00535).
T2 construct: purchased Upsate (Upstate)
The assay is described as follows: Kinase assay determining CDK5/p35 activity (selectivity panel). Conditions: 10 μM of compound, in comparison to DMSO (0% inhibition). The format is biochemical. On the procedure: as §3, §4, §2

The target in assay [11] is T3, CDK9 (Homo sapiens, UniProt P50750).
T3 construct: endogenous in cells; host or cells: PM1 cells (lysate)
The assay is described as follows: Affinity chromatography with immobilised compound, PM1 cell lysate, mass spectrometry: CDK9. The format is binding. Conditions: compound coupled to ECH-Sepharose. On the procedure:
(§5) Affinity Chromatography Experiments:
(§6) Coupling to epoxy-groups: 500 μl drained epoxy-activated Sepharose 6B (Amersham Biosciences) equilibrated to 50% DMF/0.1M Na2CO3 were resuspended in 1 ml 20 mM Compound 102 or 20 mM Compound 103, respectively, dissolved in 50% DMF (Dimethylfomamid)/0.1 M Na2CO3. 5 μl 10M NaOH was added followed by incubation overnight at 30° C. with permanent shaking in the dark. After washing three times in 1 ml 50% DMF/0.1M Na2CO3 the beads were incubated in 1 ml 1M ethanolamine for 6 h at 30° C. with permanent shaking in the dark followed by the denoted washing steps: 50% DMF/0.1M Na2CO3, then H2O, then 0.1M NaHCO3 pH 8.0/0.5M NaCl followed by 0.1M NaAc pH 4.0/0.1M NaCl and finally three times in chromatography buffer (see below) containing 150 mM NaCl. As control matrix epoxy-activated Sepharose 6B was incubated with 1M ethanolamine and equally treated as described above. The beads were stored in 20% ethanol at 4° C. in the dark.
Carbodiimide coupling: ECH-Sepharose 4B (Amersham Biosciences) was washed according to the manufacturer's instructions and equilibrated to 50% DMF/50% ethanol. 2.5 ml drained beads were resuspended in 5 ml 15 mM Compound 102 or Compound 103, respectively, dissolved in 50% DMF/50% ethanol followed by drop by drop addition of 750 μl 1M 1-ethyl-3-(3-dimethylaminopropyl) carbodiimide hydrochloride (EDC), dissolved in 50% DMF/50% ethanol. […]

Assay [12] deals with Abl (Homo sapiens, UniProt P00519). The assay is described as follows: General kinase assay, selectivity panel: Abl. In kind it is biochemical. Conditions: 10 μM of compound, in comparison to DMSO (0% inhibition). Summed up: as §1
For assay [13], the system named is protein kinases of PM1 cell lysates. The assay is described as follows: Affinity chromatography with immobilised compound, PM1 cell lysate, mass spectrometry: additional targets. The format is binding. On the procedure:
as §5, §6
Carbodiimide coupling: ECH-Sepharose 4B (Amersham Biosciences) was washed according to the manufacturer's instructions and equilibrated to 50% DMF/50% ethanol. 2.5 ml drained beads were resuspended in 5 ml 15 mM Compound 102 or Compound 103, respectively, dissolved in 50% DMF/50% ethanol followed by drop by drop addition of 750 μl 1M 1-ethyl-3-(3-dimethylaminopropyl) carbodiimide hydrochloride (EDC), dissolved in 50% DMF/50% ethanol. The suspension was incubated overnight at room temperature with permanent end-over-end rotation and washed three times with 15 ml 50% DMF/50% ethanol prior to the addition of 5 ml 33% DMF/33% ethanol/34% 1M ethanolamine pH 8.0 and 650 μl EDC. After 2 h incubation at room temperature with permanent end-over-end rotation, beads were washed three times with 15 ml 50% DMF/50% ethanol, twice with 15 ml 0.5M NaCl and once with 15 ml 20% ethanol. Control beads were incubated with 5 ml 1M ethanolamine instead of compound and treated equally as described above. The beads were stored in 20% ethanol at 4° C. in the dark.
Affinity Chromatography and Preparative Gel Electrophoresis.
1.25×10^9 PM1 cells were lysed in 15 ml buffer containing 50 mM HEPES pH 7.5, 400 mM NaCl, 0.5% Triton X-100, 1 mM EDTA, 1 mM EGTA, 3 mM MgCl2, 1 mM DTT plus additives (10 mM sodium fluoride, 1 mM orthovanadate, 10 μg/ml aprotinin, 10 μg/ml leupeptin, 1 mM PMSF), cleared by centrifugation and adjusted to 1M NaCl. The filtered lysate was loaded with a flow rate of 100 μl/min on a […] chromatography column containing 500 μl Compound 102 or Compound 103 matrix, respectively, equilibrated to chromatography buffer (20 mM HEPES pH 7.5, 0.25% Triton X-100, 1 mM EDTA, 1 mM EGTA) containing 1M NaCl. […]

Setting [14] is: compound coupled to ECH-Sepharose, mass spectrometry.

Sequence of CDK1 (P06493 whole entry, species assumed): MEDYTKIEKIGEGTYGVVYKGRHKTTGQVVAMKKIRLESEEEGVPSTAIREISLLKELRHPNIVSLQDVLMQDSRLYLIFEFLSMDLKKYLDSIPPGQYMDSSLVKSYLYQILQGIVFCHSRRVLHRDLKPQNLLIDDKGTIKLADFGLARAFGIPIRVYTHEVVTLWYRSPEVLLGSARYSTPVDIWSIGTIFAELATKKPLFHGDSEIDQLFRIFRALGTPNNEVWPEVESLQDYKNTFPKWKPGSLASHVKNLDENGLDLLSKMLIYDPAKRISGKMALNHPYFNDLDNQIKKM
Sequence of CDK1 (P14635 whole entry partner, species assumed): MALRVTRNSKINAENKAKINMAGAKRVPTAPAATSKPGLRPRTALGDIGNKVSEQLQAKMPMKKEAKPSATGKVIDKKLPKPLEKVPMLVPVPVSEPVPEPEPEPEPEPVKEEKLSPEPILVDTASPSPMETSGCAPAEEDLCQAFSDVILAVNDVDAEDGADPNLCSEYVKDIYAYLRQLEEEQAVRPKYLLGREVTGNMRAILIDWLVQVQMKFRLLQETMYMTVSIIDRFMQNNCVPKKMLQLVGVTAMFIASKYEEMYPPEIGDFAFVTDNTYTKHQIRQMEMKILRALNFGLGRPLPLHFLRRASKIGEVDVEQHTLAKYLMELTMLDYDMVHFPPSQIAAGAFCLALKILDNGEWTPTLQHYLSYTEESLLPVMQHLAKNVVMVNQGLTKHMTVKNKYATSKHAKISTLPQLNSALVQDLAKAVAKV
Sequence of EGFR (P00533 25-1210, species assumed): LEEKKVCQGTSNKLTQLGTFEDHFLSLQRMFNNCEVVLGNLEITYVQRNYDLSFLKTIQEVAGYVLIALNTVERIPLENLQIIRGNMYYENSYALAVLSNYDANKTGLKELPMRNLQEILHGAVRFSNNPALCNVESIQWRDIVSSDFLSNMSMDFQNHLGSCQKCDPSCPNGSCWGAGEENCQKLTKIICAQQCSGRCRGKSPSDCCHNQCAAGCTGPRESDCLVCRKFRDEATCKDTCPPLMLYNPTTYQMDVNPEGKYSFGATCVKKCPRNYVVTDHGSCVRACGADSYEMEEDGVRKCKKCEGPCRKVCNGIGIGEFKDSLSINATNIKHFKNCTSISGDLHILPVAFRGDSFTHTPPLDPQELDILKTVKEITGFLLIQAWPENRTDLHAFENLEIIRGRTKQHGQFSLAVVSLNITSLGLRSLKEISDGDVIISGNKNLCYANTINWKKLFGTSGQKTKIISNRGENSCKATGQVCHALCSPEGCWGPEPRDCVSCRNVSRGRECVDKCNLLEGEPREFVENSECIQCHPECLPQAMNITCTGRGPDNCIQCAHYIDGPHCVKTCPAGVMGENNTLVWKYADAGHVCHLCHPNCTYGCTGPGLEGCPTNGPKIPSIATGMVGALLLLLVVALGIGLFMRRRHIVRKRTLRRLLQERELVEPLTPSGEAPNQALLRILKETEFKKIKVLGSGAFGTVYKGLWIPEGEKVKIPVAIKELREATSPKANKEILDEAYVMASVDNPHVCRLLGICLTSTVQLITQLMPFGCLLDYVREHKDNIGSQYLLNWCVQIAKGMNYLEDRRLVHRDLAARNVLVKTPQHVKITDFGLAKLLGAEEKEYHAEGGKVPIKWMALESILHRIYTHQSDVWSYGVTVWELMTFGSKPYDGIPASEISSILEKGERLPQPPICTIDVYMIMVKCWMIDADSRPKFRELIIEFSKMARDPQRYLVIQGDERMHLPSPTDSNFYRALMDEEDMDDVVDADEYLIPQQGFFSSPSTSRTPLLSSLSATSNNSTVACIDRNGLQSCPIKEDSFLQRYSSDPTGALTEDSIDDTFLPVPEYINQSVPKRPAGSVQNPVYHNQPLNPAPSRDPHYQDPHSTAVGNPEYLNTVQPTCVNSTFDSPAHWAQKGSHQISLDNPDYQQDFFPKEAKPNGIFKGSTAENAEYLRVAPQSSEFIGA
Sequence of GSK-3β (P49841 whole entry, species assumed): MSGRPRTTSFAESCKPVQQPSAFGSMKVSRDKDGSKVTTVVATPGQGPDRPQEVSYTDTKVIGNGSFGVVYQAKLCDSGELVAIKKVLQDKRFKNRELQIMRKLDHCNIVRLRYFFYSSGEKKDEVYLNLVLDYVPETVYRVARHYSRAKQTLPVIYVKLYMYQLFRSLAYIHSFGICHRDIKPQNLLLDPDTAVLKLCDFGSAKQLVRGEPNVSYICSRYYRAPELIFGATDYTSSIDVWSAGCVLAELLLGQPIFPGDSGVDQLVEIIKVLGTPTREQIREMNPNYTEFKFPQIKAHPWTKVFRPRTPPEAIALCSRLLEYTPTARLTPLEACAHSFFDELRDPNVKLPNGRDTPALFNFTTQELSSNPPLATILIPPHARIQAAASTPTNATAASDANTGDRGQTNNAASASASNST
T3 sequence (P50750 whole entry): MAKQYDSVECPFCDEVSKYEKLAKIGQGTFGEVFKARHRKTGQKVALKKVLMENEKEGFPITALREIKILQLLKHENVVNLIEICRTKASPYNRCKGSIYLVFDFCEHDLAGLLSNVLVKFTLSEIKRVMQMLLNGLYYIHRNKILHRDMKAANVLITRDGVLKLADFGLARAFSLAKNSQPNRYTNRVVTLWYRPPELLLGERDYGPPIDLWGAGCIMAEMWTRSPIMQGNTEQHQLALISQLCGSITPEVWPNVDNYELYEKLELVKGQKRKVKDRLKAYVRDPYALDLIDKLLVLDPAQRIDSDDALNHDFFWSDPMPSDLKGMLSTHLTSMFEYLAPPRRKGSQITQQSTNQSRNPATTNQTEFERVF
T2 sequence (Q00535 whole entry): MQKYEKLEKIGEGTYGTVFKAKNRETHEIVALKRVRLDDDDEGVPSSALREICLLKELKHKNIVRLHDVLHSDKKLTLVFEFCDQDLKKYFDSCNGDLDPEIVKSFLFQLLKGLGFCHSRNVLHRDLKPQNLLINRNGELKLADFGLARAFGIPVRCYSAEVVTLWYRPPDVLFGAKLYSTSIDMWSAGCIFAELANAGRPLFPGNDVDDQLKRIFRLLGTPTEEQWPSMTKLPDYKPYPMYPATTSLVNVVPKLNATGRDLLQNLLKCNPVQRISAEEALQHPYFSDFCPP
T2 sequence (Q15078 whole entry partner): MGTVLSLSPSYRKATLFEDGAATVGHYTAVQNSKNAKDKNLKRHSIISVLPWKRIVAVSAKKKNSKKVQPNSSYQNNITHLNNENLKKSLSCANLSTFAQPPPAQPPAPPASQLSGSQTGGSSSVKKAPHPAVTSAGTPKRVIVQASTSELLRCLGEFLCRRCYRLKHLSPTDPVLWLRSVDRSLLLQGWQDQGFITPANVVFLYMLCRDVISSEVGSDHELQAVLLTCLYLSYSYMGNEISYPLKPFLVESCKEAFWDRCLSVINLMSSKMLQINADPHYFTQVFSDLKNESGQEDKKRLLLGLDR
Sequence of p56 Lck (P06239 whole entry): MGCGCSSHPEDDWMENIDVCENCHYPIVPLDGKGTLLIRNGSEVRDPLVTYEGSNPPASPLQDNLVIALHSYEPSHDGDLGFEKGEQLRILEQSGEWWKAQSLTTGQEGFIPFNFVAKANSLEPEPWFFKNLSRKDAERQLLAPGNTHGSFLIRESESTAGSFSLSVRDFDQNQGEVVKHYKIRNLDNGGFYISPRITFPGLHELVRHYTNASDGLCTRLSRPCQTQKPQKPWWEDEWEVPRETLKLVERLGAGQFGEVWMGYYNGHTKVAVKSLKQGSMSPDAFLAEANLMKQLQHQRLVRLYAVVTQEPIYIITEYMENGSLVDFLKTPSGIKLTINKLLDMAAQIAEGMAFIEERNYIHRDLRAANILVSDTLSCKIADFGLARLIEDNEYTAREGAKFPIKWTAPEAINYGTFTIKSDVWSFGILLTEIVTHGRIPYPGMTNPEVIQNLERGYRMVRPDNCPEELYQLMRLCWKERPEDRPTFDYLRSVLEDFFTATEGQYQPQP
Sequence of c-Kit (P10721 26-976): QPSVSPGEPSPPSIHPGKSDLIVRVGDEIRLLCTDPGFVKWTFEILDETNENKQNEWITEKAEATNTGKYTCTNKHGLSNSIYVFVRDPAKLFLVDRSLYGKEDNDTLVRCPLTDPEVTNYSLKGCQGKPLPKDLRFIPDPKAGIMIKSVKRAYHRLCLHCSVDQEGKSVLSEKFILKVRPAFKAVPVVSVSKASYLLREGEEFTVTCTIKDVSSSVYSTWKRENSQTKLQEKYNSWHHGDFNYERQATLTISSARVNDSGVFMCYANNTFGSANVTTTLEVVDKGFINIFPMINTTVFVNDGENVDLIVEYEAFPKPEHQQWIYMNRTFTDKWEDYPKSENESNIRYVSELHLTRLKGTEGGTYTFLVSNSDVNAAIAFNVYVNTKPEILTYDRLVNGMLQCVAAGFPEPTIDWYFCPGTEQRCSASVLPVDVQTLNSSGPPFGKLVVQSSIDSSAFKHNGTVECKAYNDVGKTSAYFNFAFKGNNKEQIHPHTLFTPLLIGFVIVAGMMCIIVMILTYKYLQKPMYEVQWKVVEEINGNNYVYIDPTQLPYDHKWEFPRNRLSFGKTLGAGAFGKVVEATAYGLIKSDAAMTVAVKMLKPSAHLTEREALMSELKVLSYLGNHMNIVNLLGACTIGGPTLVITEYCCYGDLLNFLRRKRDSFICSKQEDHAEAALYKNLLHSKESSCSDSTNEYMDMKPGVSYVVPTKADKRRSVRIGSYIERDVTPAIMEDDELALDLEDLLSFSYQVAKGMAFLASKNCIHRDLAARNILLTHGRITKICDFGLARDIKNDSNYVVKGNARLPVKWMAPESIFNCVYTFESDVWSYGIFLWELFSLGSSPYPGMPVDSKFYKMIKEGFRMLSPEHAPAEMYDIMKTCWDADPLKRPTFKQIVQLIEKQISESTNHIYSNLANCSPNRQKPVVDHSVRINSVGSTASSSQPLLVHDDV

With `COc1ccccc1-c1cc(Nc2ccc(N3CCCC3=O)cc2)ncn1` [Compound 9], the “c-Kit (% inhibition)” value in [1] is “c (inhibition between 50 and 30%: c)”. The “EGFR (% inhibition)” value in assay [2] is “b (inhibition between 80 and 50%: b)”. Besides, in assay [3], the “CDK1 (% inhibition)” value was “a (inhibition greater than 80%: a)”. For the same molecule, the “GSK-3β (% inhibition)” value in assay [4] is “b (inhibition between 80 and 50%: b)”. The “RSK1 (% inhibition)” value in assay [5] was “c (inhibition between 50 and 30%: c)”. Also, in assay [6], the “effect on growth of PM1 cells (in words)” value is “affect severely”. Moreover, the “p56 Lck (% inhibition)” value in [7] was “b (inhibition between 80 and 50%: b)”. In assay [8], the “CDK2 inhibition (in words)” value is listed as “tendency to inhibit potently”. In addition, the “PDGFR (% inhibition)” value in [9] was “c (inhibition between 50 and 30%: c)”.
On to `COC(=O)CN(c1ccc(Nc2cc(-c3ccccc3OC)ncn2)cc1)S(=O)(=O)c1ccc(C)cc1` [Compound 28], for which the “effect on growth of PM1 cells (in words)” value in assay [6] was “affect severely”. Besides, in [8], the “CDK2 inhibition (in words)” value is “tendency to inhibit potently”.
Consider `COc1ccccc1-c1cc(Nc2ccc(NC(=O)CCN)cc2)ncn1` [Compound 102, 3-Amino-N-{4-[6-(2-methoxy-phenyl)-pyrimidin-4-ylamino]-phenyl}-propionamide], for which the inhibition at 10 µM in [2] was greater than 80%; in assay [3], 50 to 80%; in assay [10] it was greater than 80%; in assay [12] it was 30 to 50%. Moreover, the “isolation of CDK9 out of crude PM1 cell lysates by affinity medium” value in [11] was “able to isolate CDK9”. Further, the “protein kinases in eluates: CaMK2β, MLK (MRK-alpha), yes, cdc2-like protein kinase (CDC2L5), CrkRS, MAK” value in assay [13] (LCMS analysis of eluates) was “identified”. For the same molecule, in [13] (setting [14]), the “additional targets bound: CaMK2γ, CaMK2δ, CDK2, MRK-beta (ZAK)” value is reported as “specifically bound”. Also, the “PDGFR (% inhibition)” value in [9] was “b (inhibition between 80 and 50%: b)”.
With `NCCCOc1ccccc1-c1cc(Nc2ccc(NC(=O)c3ccc(N)cc3)cc2)ncn1` [Compound 103, 4-Amino-N-(4-{6-[2-(3-amino-propoxy)phenyl]-pyrimidin-4-ylamino}-phenyl)-benzamide], the inhibition at 10 µM in [2] was greater than 80%; in assay [3], 50 to 80%; in assay [4], 50 to 80%; in assay [10] it was 50 to 80%. For the same molecule, the “isolation of CDK9 out of crude PM1 cell lysates by affinity medium” value in [11] was “able to isolate CDK9”. For the same molecule, in assay [13] (LCMS analysis of eluates), the “protein kinases in eluates: CaMK2β, GSK3α, CDK2, CrkRS, receptor similar to FGFR-3” value is “detected”. Further, the “additional targets bound: GSK3β, c-Src tyrosine kinase (CSK)” value in [13] (setting [14]) was “specifically bound”. The “PDGFR (% inhibition)” value in assay [9] is “c (inhibition between 50 and 30%: c)”.
